From ChEMBL document CHEMBL4138123, “Design, synthesis and biological evaluation of novel pyrazolochalcones as potential modulators of PI3K/Akt/mTOR pathway and inducers of apoptosis in breast cancer cells” (Eur J Med Chem, 2017)

Assays:
HOP-62 [1] = assay: Cytotoxicity against human HOP62 cells assessed as cell growth at 10 uM after 48 hrs by sulforhodamine B assay relative to control; assay type: functional; conditions: HOP-62, 48 h, read-out: Activity
SK-MEL-28 [2] = assay: Cytotoxicity against human SK-MEL-28 cells assessed as cell growth at 10 uM after 48 hrs by sulforhodamine B assay relative to control; assay type: functional; conditions: SK-MEL-28, 48 h, read-out: Activity
UACC-62 = assay: Cytotoxicity against human UACC62 cells assessed as cell growth at 1 uM after 48 hrs by sulforhodamine B assay relative to control; assay type: functional; conditions: UACC-62, 48 h, read-out: Activity
786-0 [3] = assay: Cytotoxicity against human 786-0 cells assessed as cell growth at 0.1 uM after 48 hrs by sulforhodamine B assay relative to control; assay type: functional; conditions: 786-0, 48 h, read-out: Activity
MDA-MB-231 [4] = assay: Cytotoxicity against human MDA-MB-231 cells assessed as cell growth at 100 uM after 48 hrs by sulforhodamine B assay relative to control; assay type: functional; conditions: MDA-MB-231, 48 h, read-out: Activity
MOLT-4 [5] = assay: Cytotoxicity against human MOLT4 cells assessed as cell growth at 1 uM after 48 hrs by sulforhodamine B assay relative to control; assay type: functional; conditions: MOLT-4, 48 h, read-out: Activity
RXF 393 = assay: Cytotoxicity against human RXF393 cells assessed as cell growth at 1 uM after 48 hrs by sulforhodamine B assay relative to control; assay type: functional; conditions: RXF 393, 48 h, read-out: Activity
NCI-H460 = assay: Cytotoxicity against human NCI-H460 cells assessed as growth inhibition after 48 hrs by sulforhodamine B assay; assay type: functional; conditions: NCI-H460, 48 h
HL-60(TB) [6] = assay: Cytotoxicity against human HL-60(TB) cells assessed as growth inhibition after 48 hrs by sulforhodamine B assay; assay type: functional; conditions: HL-60, 48 h
SN12C [7] = assay: Cytotoxicity against human SN12C cells assessed as cell growth at 0.01 uM after 48 hrs by sulforhodamine B assay relative to control; assay type: functional; conditions: read-out: Activity
UACC-257 [8] = assay: Cytotoxicity against human UACC257 cells assessed as cell growth at 1 uM after 48 hrs by sulforhodamine B assay relative to control; assay type: functional; conditions: UACC-257, 48 h, read-out: Activity
CCRF-CEM = assay: Cytotoxicity against human CCRF-CEM cells assessed as cell growth at 0.1 uM after 48 hrs by sulforhodamine B assay relative to control; assay type: functional; conditions: read-out: Activity
DU-145 = assay: Cytotoxicity against human DU145 cells assessed as cell growth at 0.01 uM after 48 hrs by sulforhodamine B assay relative to control; assay type: functional; conditions: DU-145, 48 h, read-out: Activity
786-0 [9] = assay: Cytotoxicity against human 786-0 cells assessed as cell growth at 100 uM after 48 hrs by sulforhodamine B assay relative to control; assay type: functional; conditions: 786-0, 48 h, read-out: Activity
SR = assay: Cytotoxicity against human SR cells assessed as cell growth at 1 uM after 48 hrs by sulforhodamine B assay relative to control; assay type: functional; conditions: read-out: Activity
SK-MEL-28 [10] = assay: Cytotoxicity against human SK-MEL-28 cells assessed as cell growth at 1 uM after 48 hrs by sulforhodamine B assay relative to control; assay type: functional; conditions: SK-MEL-28, 48 h, read-out: Activity
SK-MEL-5 = assay: Cytotoxicity against human SK-MEL-5 cells assessed as cell growth at 100 uM after 48 hrs by sulforhodamine B assay relative to control; assay type: functional; conditions: SK-MEL-5, 48 h, read-out: Activity
HOP-62 [11] = assay: Cytotoxicity against human HOP62 cells assessed as cell growth at 0.1 uM after 48 hrs by sulforhodamine B assay relative to control; assay type: functional; conditions: HOP-62, 48 h, read-out: Activity
SN12C [12] = assay: Cytotoxicity against human SN12C cells assessed as cell growth at 10 uM after 48 hrs by sulforhodamine B assay relative to control; assay type: functional; conditions: read-out: Activity
MOLT-4 [13] = assay: Cytotoxicity against human MOLT4 cells assessed as cell growth at 10 uM after 48 hrs by sulforhodamine B assay relative to control; assay type: functional; conditions: MOLT-4, 48 h, read-out: Activity
A549 = assay: Cytotoxicity against human A549/ATCC cells assessed as cell growth at 1 uM after 48 hrs by sulforhodamine B assay relative to control; assay type: functional; conditions: A549, 48 h, read-out: Activity
ACHN = assay: Cytotoxicity against human ACHN cells assessed as cell growth at 0.01 uM after 48 hrs by sulforhodamine B assay relative to control; assay type: functional; conditions: read-out: Activity
TK-10 = assay: Cytotoxicity against human TK10 cells assessed as cell growth at 10 uM after 48 hrs by sulforhodamine B assay relative to control; assay type: functional; conditions: TK-10, 48 h, read-out: Activity
SF-539 = assay: Cytotoxicity against human SF539 cells assessed as growth inhibition after 48 hrs by sulforhodamine B assay; assay type: functional; conditions: SF-539, 48 h
PC-3 [14] = assay: Cytotoxicity against human PC3 cells assessed as cell growth at 1 uM after 48 hrs by sulforhodamine B assay relative to control; assay type: functional; conditions: PC-3, 48 h, read-out: Activity
MDA-MB-231 [15] = assay: Cytotoxicity against human MDA-MB-231 cells assessed as growth inhibition after 48 hrs by MTT assay; assay type: functional, cell-based; conditions: MDA-MB-231, 48 h
NCI/ADR-RES = assay: Cytotoxicity against human NCI/ADR-RES cells assessed as cell growth at 10 uM after 48 hrs by sulforhodamine B assay relative to control; assay type: functional; conditions: read-out: Activity
UACC-257 [16] = assay: Cytotoxicity against human UACC257 cells assessed as cell growth at 0.01 uM after 48 hrs by sulforhodamine B assay relative to control; assay type: functional; conditions: UACC-257, 48 h, read-out: Activity
IGROV-1 [17] = assay: Cytotoxicity against human IGROV1 cells assessed as growth inhibition after 48 hrs by sulforhodamine B assay; assay type: functional; conditions: IGROV-1, 48 h
NCI-H23 = assay: Cytotoxicity against human NCI-H23 cells assessed as cell growth at 0.1 uM after 48 hrs by sulforhodamine B assay relative to control; assay type: functional; conditions: NCI-H23, 48 h, read-out: Activity
PC-3 [18] = assay: Cytotoxicity against human PC3 cells assessed as cell growth at 0.01 uM after 48 hrs by sulforhodamine B assay relative to control; assay type: functional; conditions: PC-3, 48 h, read-out: Activity
A498 = assay: Cytotoxicity against human A498 cells assessed as cell growth at 10 uM after 48 hrs by sulforhodamine B assay relative to control; assay type: functional; conditions: A498, 48 h, read-out: Activity
SK-MEL-28 [19] = assay: Cytotoxicity against human SK-MEL-28 cells assessed as growth inhibition after 48 hrs by sulforhodamine B assay; assay type: functional; conditions: SK-MEL-28, 48 h
SK-OV-3 = assay: Cytotoxicity against human SKOV3 cells assessed as cell growth at 1 uM after 48 hrs by sulforhodamine B assay relative to control; assay type: functional; conditions: SK-OV-3, 48 h, read-out: Activity
IGROV-1 [20] = assay: Cytotoxicity against human IGROV1 cells assessed as cell growth at 10 uM after 48 hrs by sulforhodamine B assay relative to control; assay type: functional; conditions: IGROV-1, 48 h, read-out: Activity
HL-60(TB) [21] = assay: Cytotoxicity against human HL-60(TB) cells assessed as cell growth at 10 uM after 48 hrs by sulforhodamine B assay relative to control; assay type: functional; conditions: HL-60, 48 h, read-out: Activity

Compound: COc1cc(-c2cc(/C=C/C(=O)c3ccc4c(c3)OCO4)[nH]n2)cc(OC)c1OC
- growth at 10 µM (HOP-62 [1]): -38%
- growth at 10 µM (SK-MEL-28 [2]): -14%
- growth at 1 µM (UACC-62): 99%
- growth at 0.1 µM (786-0 [3]): 97%
- growth at 100 µM (MDA-MB-231 [4]): 21%
- growth at 1 µM (MOLT-4 [5]): 99%
- growth at 1 µM (RXF 393): 80%
- LC50 (NCI-H460): > 100 µM
- TGI (NCI-H460): 5.1 µM
- LC50 (HL-60(TB) [6]): > 100 µM
- TGI (HL-60(TB) [6]): 6.36 µM
- growth at 0.01 µM (SN12C [7]): 97%
- growth at 1 µM (UACC-257 [8]): 81%
- growth at 0.1 µM (CCRF-CEM): 90%
- growth at 0.01 µM (DU-145): 104%
- growth at 100 µM (786-0 [9]): -30%
- growth at 1 µM (SR): 32%
- growth at 1 µM (SK-MEL-28 [10]): 92%
- growth at 100 µM (SK-MEL-5): 8%
- growth at 0.1 µM (HOP-62 [11]): 100%
- growth at 10 µM (SN12C [12]): 22%
- growth at 10 µM (MOLT-4 [13]): -4%
- growth at 1 µM (A549): 92%
- growth at 0.01 µM (ACHN): 108%
- growth at 10 µM (TK-10): -31%
- LC50 (concentration killing 50% of cells) (SF-539): 25.4 µM
- TGI (SF-539): 5.73 µM
- growth at 1 µM (PC-3 [14]): 86%
- IC50 (MDA-MB-231 [15]): 1.72 µM
- growth at 10 µM (NCI/ADR-RES): 23%
- growth at 0.01 µM (UACC-257 [16]): 86%
- LC50 (IGROV-1 [17]): > 100 µM
- TGI (IGROV-1 [17]): 62.1 µM
- growth at 0.1 µM (NCI-H23): 93%
- growth at 0.01 µM (PC-3 [18]): 100%
- growth at 10 µM (A498): 9%
- LC50 (SK-MEL-28 [19]): > 100 µM
- TGI (SK-MEL-28 [19]): 7.34 µM
- growth at 1 µM (SK-OV-3): 102%
- growth at 10 µM (IGROV-1 [20]): 29%
- growth at 10 µM (HL-60(TB) [21]): -21%

Compound: COc1ccc(-c2cc(/C=C/C(=O)c3ccc(N)cc3)[nH]n2)cc1OC
- growth at 10 µM (HOP-62 [1]): -1%
- growth at 10 µM (SK-MEL-28 [2]): -29%
- growth at 1 µM (UACC-62): 95%
- growth at 0.1 µM (786-0 [3]): 95%
- growth at 100 µM (MDA-MB-231 [4]): -77%
- growth at 1 µM (MOLT-4 [5]): 93%
- growth at 1 µM (RXF 393): 94%
- GI50 (NCI-H460): 2.03 µM
- LC50 (NCI-H460): 10.6 µM
- TGI (NCI-H460): 4.53 µM
- GI50 (HL-60(TB) [6]): 3.45 µM
- LC50 (HL-60(TB) [6]): > 100 µM
- TGI (HL-60(TB) [6]): > 100 µM
- growth at 0.01 µM (SN12C [7]): 101%
- growth at 1 µM (UACC-257 [8]): 96%
- growth at 0.1 µM (CCRF-CEM): 97%
- growth at 0.01 µM (DU-145): 109%
- growth at 100 µM (786-0 [9]): -97%
- growth at 1 µM (SR): 34%
- growth at 1 µM (SK-MEL-28 [10]): 89%
- growth at 100 µM (SK-MEL-5): -94%
- growth at 0.1 µM (HOP-62 [11]): 91%
- growth at 10 µM (SN12C [12]): 14%
- growth at 10 µM (MOLT-4 [13]): 6%
- growth at 1 µM (A549): 89%
- growth at 0.01 µM (ACHN): 93%
- growth at 10 µM (TK-10): 56%
- GI50 (SF-539): 1.73 µM
- LC50 (concentration killing 50% of cells) (SF-539): 7.19 µM
- TGI (SF-539): 3.53 µM
- growth at 1 µM (PC-3 [14]): 89%
- IC50 (MDA-MB-231 [15]): 2.2 µM
- growth at 10 µM (NCI/ADR-RES): 37%
- growth at 0.01 µM (UACC-257 [16]): 90%
- GI50 (IGROV-1 [17]): 4.56 µM
- LC50 (IGROV-1 [17]): 73 µM
- TGI (IGROV-1 [17]): 19 µM
- growth at 0.1 µM (NCI-H23): 103%
- growth at 0.01 µM (PC-3 [18]): 95%
- growth at 10 µM (A498): -16%
- GI50 (SK-MEL-28 [19]): 2.14 µM
- LC50 (SK-MEL-28 [19]): 21.1 µM
- TGI (SK-MEL-28 [19]): 5.66 µM
- growth at 1 µM (SK-OV-3): 97%
- growth at 10 µM (IGROV-1 [20]): 24%
- growth at 10 µM (HL-60(TB) [21]): 10%
